ChEMBL document CHEMBL4052716, “Discovery and development of a novel class of phenoxyacetyl amides as highly potent TRPM8 agonists for use as cooling agents” (Bioorg Med Chem Lett, 2017)
Converted amounts (≈) assume the structure as drawn.

Assays:
[1] = target: T1, Transient receptor potential cation channel subfamily M member 8 (Homo sapiens, UniProt Q7Z2W7); assay: Agonist activity at human TRPM8 expressed in HEK293 cells assessed as increase in intracellular calcium level after 15 mins by Fluo-3-AM dye-based fluorescence assay; assay type: cell-based
Target sequence in this assay (Q7Z2W7 whole entry): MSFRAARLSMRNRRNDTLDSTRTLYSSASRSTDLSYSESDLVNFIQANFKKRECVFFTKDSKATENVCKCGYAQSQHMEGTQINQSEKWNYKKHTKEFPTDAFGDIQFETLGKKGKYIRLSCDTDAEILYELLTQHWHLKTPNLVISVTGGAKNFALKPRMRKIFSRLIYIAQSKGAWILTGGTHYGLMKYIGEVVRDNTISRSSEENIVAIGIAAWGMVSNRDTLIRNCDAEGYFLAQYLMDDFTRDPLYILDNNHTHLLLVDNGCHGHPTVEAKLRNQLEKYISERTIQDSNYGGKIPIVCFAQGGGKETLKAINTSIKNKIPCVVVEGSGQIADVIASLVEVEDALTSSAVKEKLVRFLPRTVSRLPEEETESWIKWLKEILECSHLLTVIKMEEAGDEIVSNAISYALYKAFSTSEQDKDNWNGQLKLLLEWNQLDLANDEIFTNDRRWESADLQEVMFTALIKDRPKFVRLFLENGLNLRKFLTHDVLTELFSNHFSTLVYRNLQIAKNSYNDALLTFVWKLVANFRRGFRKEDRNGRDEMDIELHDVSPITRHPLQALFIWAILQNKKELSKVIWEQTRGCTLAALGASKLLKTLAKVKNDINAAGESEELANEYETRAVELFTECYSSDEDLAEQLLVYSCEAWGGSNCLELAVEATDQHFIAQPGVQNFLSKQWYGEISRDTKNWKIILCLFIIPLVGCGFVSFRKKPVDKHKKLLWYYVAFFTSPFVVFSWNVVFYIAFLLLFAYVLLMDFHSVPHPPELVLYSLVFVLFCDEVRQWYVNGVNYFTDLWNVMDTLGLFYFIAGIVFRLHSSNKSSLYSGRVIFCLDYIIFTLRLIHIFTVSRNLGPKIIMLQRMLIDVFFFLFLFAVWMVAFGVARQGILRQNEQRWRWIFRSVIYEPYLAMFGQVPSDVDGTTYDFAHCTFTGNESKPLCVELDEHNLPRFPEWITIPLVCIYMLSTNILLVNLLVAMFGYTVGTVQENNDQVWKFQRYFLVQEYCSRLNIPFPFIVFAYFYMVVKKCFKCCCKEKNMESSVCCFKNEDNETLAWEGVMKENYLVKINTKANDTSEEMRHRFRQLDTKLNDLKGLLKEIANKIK

[2] = tested on: Homo sapiens; assay: In vivo agonist activity at human TRPM8 in trained human subjects assessed as concentration required to deliver cooling sensation equivalent to 45 uM WS-3 by measuring cooling intensity; assay type: functional
[3] = target: T1, Transient receptor potential cation channel subfamily M member 8; assay: Potency index, ratio of WS-3 EC50 to compound EC50 for human TRPM8 receptor
Target sequence in this assay (Q7Z2W7 whole entry, looked up): as the sequence (Q7Z2W7 whole entry) above

[4] = Thermodynamic solubility of the compound in pH 7.1 phosphoric buffer; assay type: physicochemical; conditions: read-out: Therm_solubility
[5] = Permeability of the compound assessed as drug transport by PAMPA; assay type: physicochemical

Row | EC50 ([1]; read-out: EC50) [nM] | Ratio EC50 [3] | solubility thermodynamic [4] [µM] | Drug transport [5] [%] | EC50 ([1]; hek293) | SMILES | Activity [2] [µM]
1 | 136 | 32 | – | – | – | CCN(Cc1ccoc1)C(=O)COc1ccc(C)cc1 | 5
2 | 1.4 | 3820 | – | – | – | Cc1ccc(OCC(=O)N(Cc2cccs2)c2cn[nH]c2)cc1 | >5
3 | 0.3 | 14700 | – | – | – | Cc1ccc(OCC(=O)N(Cc2cccs2)c2c(C)n[nH]c2C)cc1 | –
4 | 178 | 18 | – | – | – | CCN(Cc1ccc(C)s1)C(=O)COc1ccc(C)cc1 | –
5 | 93 | 40 | – | – | – | CCN(Cc1cccs1)C(=O)CCc1ccc(C)cc1 | >5
6 | 0.8 | 7680 | 85 (≈ 26.8 µg/mL) | 3 | – | CCN(Cc1cccs1)C(=O)COc1ccc2c(c1)CCC2 | 3
7 | 1790 | 3 | – | – | – | Cc1ccc(OCC(=O)N(Cc2cccs2)c2nccn2C)cc1 | –
8 | 70 | 66 | – | – | – | Cc1ccc(OCC(=O)N(Cc2cccs2)C(C)C)cc1 | –
9 | 97 | 42 | – | – | – | CCN(Cc1cccs1)C(=O)COc1cccc(C)c1 | 5
10 | 422 | 10 | – | – | – | CCN(Cc1cccs1)C(=O)COc1ccc(F)cc1 | –
11 | 1400 | 4 | – | – | – | CCN(Cc1cccs1)C(=O)COc1ccccc1 | –
12 | 0.6 | 6340 | – | – | – | O=C(COc1ccc2c(c1)OCO2)N(Cc1cccs1)c1ccn[nH]1 | –
13 | 21800 | 0.2 | – | – | – | CCN(Cc1cc[nH]c1)C(=O)COc1ccc(C)cc1 | –
14 | 200 | 25 | – | – | – | Cc1ccc(OCC(=O)N(Cc2cccs2)c2ccccn2)cc1 | 15
15 | 61 | 58 | 571 (≈ 181 µg/mL) | 33 | – | CCN(Cc1cccs1)C(=O)COc1ccc2c(c1)COC2 | 5
16 | 1600 | 3 | – | – | – | CCN(Cc1cccs1)C(=O)c1cc2cc(C)ccc2s1 | –
17 | 2000 | 2 | – | – | – | CCC(C)N(Cc1cccs1)C(=O)COc1ccc(C)cc1 (stereo not drawn) | –
18 | 3.7 | – | – | – | – | COc1ccc(OCC(=O)N(Cc2cccs2)c2cc[nH]n2)cc1 | –
19 | 40 | > 1e+06 | – | – | – | Cc1ccc2oc(C(=O)N(Cc3cccs3)c3ccn[nH]3)cc2c1 | 4
20 | 2240 | 2 | – | – | – | Cc1ccc(OCC(=O)N(Cc2cccs2)c2nccs2)cc1 | –
21 | 8 | 577 | – | – | – | Cc1ccc(OCC(=O)N(Cc2cccs2)C2CC2)cc1 | 5
22 | 63000 | 0.1 | – | – | – | Cc1ccc(OCC(=O)N(Cc2cccs2)c2cnn(C)c2)cc1 | –
23 | 40 | 149 | – | – | – | CCCN(Cc1cccs1)C(=O)COc1ccc(C)cc1 | >5
24 | 21300 | 0.3 | – | – | – | CCN(Cc1cccn1C)C(=O)COc1ccc(C)cc1 | –
25 | 900 | 5 | – | – | – | Cc1ccc(OCC(=O)N(CCO)Cc2cccs2)cc1 | –

Row | EC50 ([1]; read-out: EC50) [nM] | Ratio EC50 [3] | solubility thermodynamic [4] [µM] | Drug transport [5] [%] | EC50 ([1]; hek293) | SMILES | Activity [2] [µM]
26 | 900 | 3 | – | – | – | Cc1ccc(OCC(=O)N(Cc2cccs2)CC(C)C)cc1 | –
27 | 198 | 24 | – | – | – | Cc1ccc(OCC(=O)N(Cc2cccs2)c2cccnc2)cc1 | 15
28 | 20 | 365 | – | – | – | C=CCN(Cc1cccs1)C(=O)COc1ccc(C)cc1 | 5
29 | 192 | 18 | – | – | – | CCN(Cc1cccs1)C(=O)COc1ccccc1C | –
30 | 689 | 7 | – | – | – | CCN(Cc1cccs1)C(=O)COc1ccc2c(c1)CCCC2 | –
31 | 1100 | 4 | – | – | – | CCN(Cc1cncs1)C(=O)COc1ccc(C)cc1 | –
32 | 120 | 32 | – | – | – | CCN(Cc1cccs1)C(=O)COc1ccc(OC)cc1 | 15
33 | 1880 | 2 | – | – | – | CCN(Cc1ccccc1)C(=O)COc1ccc(C)cc1 | –
34 | – | – | – | – | Not Active | CCN(Cc1cccs1)C(=O)C[C@@H](O)c1ccccc1 | –
35 | 0.001 | > 1e+06 | 26 (≈ 9.19 µg/mL) | 5 | – | O=C(COc1ccc2c(c1)CCC2)N(Cc1cccs1)c1ccn[nH]1 | 3
36 | – | – | – | – | Not Active | CCN(C(=O)COc1ccc(C)cc1)C(C)c1cccs1 (stereo not drawn) | –
37 | 236 | 18 | – | – | – | CCN(Cc1cccs1)C(=O)COc1ccc(C(F)(F)F)cc1 | –
38 | 39 | 93 | – | – | – | CCN(Cc1cccs1)C(=O)COc1ccc(Cl)cc1 | –
39 | 1240 | 3 | – | – | – | Cc1ccc(OCC(=O)N(Cc2cccs2)c2cnccn2)cc1 | –
40 | 23 | 197 | – | – | – | Cc1ccc(OCC(=O)N(Cc2cccs2)c2ccccc2)cc1 | 15
41 | 8 | 620 | 545 (≈ 158 µg/mL) | 12 | – | CCN(Cc1cccs1)C(=O)COc1ccc(C)cc1 | 5
42 | 11000 | 0.4 | – | – | – | Cc1ccc(OCC(=O)N(Cc2cccs2)C(C)(C)C)cc1 | –
43 | 1.1 | 30900 | – | – | – | COc1ccc2oc(C(=O)N(Cc3cccs3)c3ccn[nH]3)cc2c1 | 5
44 | 3000 | 1 | – | – | – | Cc1ccc(OCC(=O)N(CCCO)Cc2cccs2)cc1 | –
45 | – | – | – | – | Active | CCN(Cc1cn[nH]c1)C(=O)COc1ccc(C)cc1 | –
46 | 24 | 180 | – | – | – | CCN(Cc1cccs1)C(=O)COc1cc(C)ccc1O | 5
47 | 397 | 10 | – | – | – | CCN(Cc1cccs1)C(=O)COc1ccc(C(C)C)cc1 | –
48 | – | – | – | – | Not Active | Cc1ccc(OC2CCN(Cc3cccs3)C2=O)cc1 (stereo not drawn) | –
49 | 40000 | 0.1 | – | – | – | Cc1ccc(OCC(=O)N(Cc2cccs2)C2CCCCC2)cc1 | –
50 | 1990 | 2 | – | – | – | CCN(Cc1cccs1)C(=O)COc1ccc(C#N)cc1 | –

The next lines start with the molecule.

Row | SMILES | EC50 ([1]; read-out: EC50) [nM] | Ratio EC50 [3] | solubility thermodynamic [4] [µM] | Drug transport [5] [%] | EC50 ([1]; hek293) | Activity [2] [µM]
51 | Cc1ccc(OCC(=O)N(Cc2cccs2)c2ccn(C)n2)cc1 | 855 | 13 | – | – | – | –
52 | CCN(Cc1cccs1)C(=O)c1cc2cc(OC)ccc2o1 | 80 | 164 | 49 (≈ 15.5 µg/mL) | 1 | – | 5
53 | CCN(Cc1cccs1)C(=O)COc1ccc(C(=O)O)cc1 | – | – | – | – | Not Active | –
54 | COCCN(Cc1cccs1)C(=O)COc1ccc(C)cc1 | 400 | 11 | – | – | – | –
55 | Cc1ccc(OCC(=O)N(Cc2cccs2)c2c[nH]nc2C)cc1 | 0.4 | 10700 | – | – | – | >5
56 | Cc1ccc(OCC(=O)N(Cc2cccs2)c2ccncc2)cc1 | 52 | 77 | – | – | – | –
57 | CCN1C(=O)C(Oc2ccc(C)cc2)C1c1cccs1 (stereo not drawn) | – | – | – | – | Active | –
58 | Cc1ccc(OCC(=O)N(Cc2cccs2)c2ncccn2)cc1 | 3700 | 1 | – | – | – | –
59 | CCN(Cc1ccco1)C(=O)COc1ccc(C)cc1 | 489 | 9 | – | – | – | 15
60 | CCN(Cc1ccsc1)C(=O)COc1ccc(C)cc1 | 88 | 49 | – | – | – | 5
61 | CCN(Cc1cccs1)C(=O)c1cc2cc(C)ccc2n1C | – | – | – | – | Not Active | –
62 | CCN(Cc1cccs1)C(=O)c1cc2cc(C)ccc2[nH]1 | 2000 | 2 | – | – | – | –
63 | CCN(Cc1cccs1)C(=O)C(C)Oc1ccc(C)cc1 (stereo not drawn) | 889 | 4 | – | – | – | –
64 | CCN(Cc1cccs1)C(=O)COc1ccc(C)cc1O | 8 | 650 | – | – | – | 3
65 | CCN(Cc1nccs1)C(=O)COc1ccc(C)cc1 | 3060 | 2 | – | – | – | –
66 | Cc1ccc(OCC(=O)N(Cc2cccs2)C2COC2)cc1 | 23000 | 0.3 | – | – | – | –
67 | CCN(Cc1cccs1)C(=O)/C=C/c1ccc(C)cc1 | 2 | 2340 | – | – | – | 3
68 | CCN(Cc1cccs1)C(=O)/C=C/c1ccc2c(c1)OCO2 | 0.7 | 6830 | – | – | – | –

Row | SMILES | EC50 ([1]; read-out: EC50) [nM] | Ratio EC50 [3] | solubility thermodynamic [4] [µM] | Drug transport [5] [%] | EC50 ([1]; hek293) | Activity [2] [µM]
69 | Cc1ccc(OCC(=O)NCc2cccs2)cc1 | 25000 | 0.1 | – | – | – | –
70 | CCN(Cc1cccs1)C(=O)c1cc2cc(C)ccc2o1 | 120 | 42 | 27 (≈ 8.08 µg/mL) | 2 | – | 10
71 | CCN(Cc1cc[nH]n1)C(=O)COc1ccc(C)cc1 | – | – | – | – | Not Active | –
72 | CCN(Cc1cccs1)C(=O)C[C@H](O)c1ccccc1 | 52000 | 0.1 | – | – | – | –
73 | CCN(Cc1cccnc1)C(=O)COc1ccc(C)cc1 | 15400 | 0.2 | – | – | – | –
74 | CCN(Cc1ccncc1)C(=O)COc1ccc(C)cc1 | – | – | – | – | Not Active | –
75 | CCN(Cc1ccccn1)C(=O)COc1ccc(C)cc1 | 16000 | 0.2 | – | – | – | –
76 | Cc1ccc(OCC(=O)N(C)Cc2cccs2)cc1 | 400 | 15 | – | – | – | –
77 | CCc1ccc(OCC(=O)N(CC)Cc2cccs2)cc1 | 67 | 66 | – | – | – | 5
78 | CCN(Cc1cccs1)C(=O)COc1ccc(CO)cc1 | 21900 | 0.2 | – | – | – | –
79 | CON(Cc1cccs1)C(=O)COc1ccc(C)cc1 | 10 | 317 | – | – | – | –
80 | CCCc1ccc(OCC(=O)N(CC)Cc2cccs2)cc1 | 1810 | 3 | – | – | – | –
81 | COc1ccc(OCC(=O)N(Cc2cccs2)c2ccn[nH]2)cc1 | – | 1140 | – | – | – | 5
82 | Cc1ccc(OCC(=O)N(O)Cc2cccs2)cc1 | 8000 | 0.4 | – | – | – | –
83 | CCN(Cc1cccs1)C(=O)C(C)(C)Oc1ccc(C)cc1 | 11000 | 0.3 | – | – | – | –
84 | O=C(/C=C/c1ccc2c(c1)OCO2)N(Cc1cccs1)c1ccn[nH]1 | 0.002 | > 1e+06 | – | – | – | –
85 | CCN(Cc1c[nH]nn1)C(=O)COc1ccc(C)cc1 | 31100 | 0.1 | – | – | – | –
